Test results reported in patent US20250320204A1 (RIBOSCIENCE LLC, priority 2023, published 2025).

Experiments:
[1] = target: T1, ENPP1 (Homo sapiens, UniProt P22413); assay: Measurement of pNP-TMP hydrolysis by ENPP1; type: biochemical; details: pNP-TMP substrate 500 μM, Km 232 μM; Ki from IC50 by Cheng-Prusoff
T1 sequence (P22413 1-925): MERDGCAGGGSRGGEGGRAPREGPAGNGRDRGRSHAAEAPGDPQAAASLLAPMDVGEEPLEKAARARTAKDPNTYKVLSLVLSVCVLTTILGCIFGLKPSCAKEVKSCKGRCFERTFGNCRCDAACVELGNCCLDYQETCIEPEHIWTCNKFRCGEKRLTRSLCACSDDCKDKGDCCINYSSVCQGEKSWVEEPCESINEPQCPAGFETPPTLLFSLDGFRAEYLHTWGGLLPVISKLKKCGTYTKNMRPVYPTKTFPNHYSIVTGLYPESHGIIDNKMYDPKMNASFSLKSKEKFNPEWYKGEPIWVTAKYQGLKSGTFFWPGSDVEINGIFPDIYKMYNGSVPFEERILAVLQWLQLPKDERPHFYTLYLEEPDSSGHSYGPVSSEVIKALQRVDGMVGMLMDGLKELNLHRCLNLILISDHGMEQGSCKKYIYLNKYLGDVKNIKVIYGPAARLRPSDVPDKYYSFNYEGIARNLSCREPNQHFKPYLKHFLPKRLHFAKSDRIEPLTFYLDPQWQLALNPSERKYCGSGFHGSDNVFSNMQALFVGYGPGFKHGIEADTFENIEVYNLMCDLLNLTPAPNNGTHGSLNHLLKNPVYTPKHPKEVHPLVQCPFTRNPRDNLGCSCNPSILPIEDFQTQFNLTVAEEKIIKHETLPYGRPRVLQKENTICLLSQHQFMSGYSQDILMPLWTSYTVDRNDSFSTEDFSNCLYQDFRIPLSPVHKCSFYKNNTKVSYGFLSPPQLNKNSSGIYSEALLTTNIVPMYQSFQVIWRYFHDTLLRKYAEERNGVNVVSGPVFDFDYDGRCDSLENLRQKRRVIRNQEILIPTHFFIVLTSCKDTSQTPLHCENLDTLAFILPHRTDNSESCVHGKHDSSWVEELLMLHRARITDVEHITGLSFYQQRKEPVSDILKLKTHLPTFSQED
Experimental: Measurement of pNP-TMP hydrolysis by ENPP1
p-Nitrophenyl thymidine 5′-monophosphate (pNP-TMP) is a synthesized substrate for ENPP1. The ENPP1 enzyme activity assay with pNP-TMP substrate was conducted as follows:
First, in a 60 μl reaction, 7.5 ng purified ENPP1 was mixed with 1.2 μl compounds of Formula (I) (test compound) ranging from 13.7 nM to 10 μM. Incubation of ENPP1 with compounds was set at 25° C. for 10 min. Reactions with DMSO only (with ENPP1 but no compound) gave the fastest reaction (MAX Activity). For each compound dilution, wells with assay buffer (50 mM Tris -HCl, pH8.8, 250 mM NaCl, 0.1 mg/ml BSA) and test compounds but no ENPP1 were included as controls for the subtraction of test compound derived absorbance at 405 nm.
Second, after 10 minutes incubation of ENPP1 and test compound, the assay was initiated by transferring 50 μl of the above mentioned ENPP1/test compound reaction into 50 μl of 1 mM pNP-TMP in assay buffer results in a 100 μl total reaction in non-binding surface clear bottom 96 well plates. Absorbance at 405 nm was recorded immediately in kinetic mode by PerkinElmer 2300 Enspire multimode plate reader.
For each inhibitor, the specific ENPP1 activity was calculated using the following equation: ENPP1 activity (pmol/min/μg)=Adjusted Vmax (OD405 nm/min) X conversion factor (pmol/OD405 nm)/amount of enzyme (μg)
Adjusted Vmax=V0X (Km+(S))/(S). In this assay, Km=232 μM, (S)=500 μM. Adjusted Vmax=1.464 X V0.
V0=(OD405 nm with ENPP1-OD405 nm ENPP1 blank)/minutes. OD405 nm was plotted, with blank subtracted, against time (minutes), the initial linear rate is V0.
The conversion factor (pmol/OD405 nm), was determined by plotting the amount of standard, 4-Nitrophenol (Sigma -Aldrich, Catalog #241326), against absorbance at 405 nm. The slope is the conversion factor. The percent ENPP1 activity for each sample was calculated using the following equation: […]
To determine the IC50 for each compound, compound concentration values and percent enzyme activity values were inserted into GraphPad Prism (GraphPad Prism version 9.0 for Windows, GraphPad Software, La Jolla California USA, www.graphpad.com), and Prism's Transform analysis was used to convert the x-axis values (compound concentration) to logarithms. A sigmoidal variable slope nonlinear regression analysis was performed using the following equation: Y=Bottom+ (Top-Bottom)/(1+10^((Log IC50″X) *HillSlope)).
Ki values for each compound were calculated from the observed IC50 from GraphPad analysis using the Cheng-Prusoff equation: Ki=IC50/(1+(S)/KM). (S) here is 500 μM and KM is determined to be 232 μM.

[2] = target: T1, ENPP1; assay: Measurement of 2′3′-cGAMP hydrolysis by ENPP1 (AMP-Glo); type: biochemical; details: 2′3′-cGAMP substrate 100 μM, KM 32 μM; Ki from IC50 by Cheng-Prusoff
Experimental: Measurement of 2′3′-cGAMP hydrolysis by ENPP1
The AMP-Glo assay kit from Promega (catalog number V5012) was used for measurement of 5′-AMP production.
First, an ENPP1 and test compound incubation was set up in assay buffer (50 mM Tris -HCl, pH8.8, 250 mM NaCl, 0.1 mg/ml BSA) with following conditions: ENPP1 concentration: 1.25 nM; test compound concentration ranging from 137 pM to 100 nM. The incubation was carried out at 25° C. for 10 min.
Second, after the 10-minute incubation of ENPP1 and test compound, prepare on a separate plate, 15 μl of the substrate 2′3′-cGAMP at 200 μM in assay buffer. Then, 15 μl of the ENPP1/Compound incubation was transferred to the 200 μM 2′3′-cGAMP solution to initiate the reaction. The 30 μl mixture was incubated for 30 min at 25° C. In all these assays a DMSO control without compound was included which gave the maximum 5′-AMP production (MAX RLU). After 30 min the reaction was stopped by heating at 90° C. for 3 min.
Third, the Promega AMP-Glo kit was used to detect 5′-AMP production as a measurement of ENPP1 enzyme activity. Briefly, 10 μl of the above mentioned 30 μl total reaction per sample was transferred into 384 well white solid assay plate for measurement of 5′-AMP production. For each well, 10 μl of AMP-Glo Reagent I was added, mixed well, and incubated for 1 hour at 25° C. At this time AMP detection solution was prepared and 20 μl was added per well, and the resulting solution was incubated for 1 hr at 25° C. Duplicates were run for each inhibitor concentration. Luminescence signal (relative luminescence units, RLU) was recorded using a PerkinElmer 2300 Enspire multimode plate reader.
The % inhibition was calculated using the following equation: % inhibition=(MAX RLU-sample RLU)/MAX RLU X 100%.
IC50 values of compounds were determined by loading compound concentration data and percent inhibition values into GraphPad Prism (GraphPad Prism version 7.0 for
Windows, GraphPad Software, La Jolla California USA, www.graphpad.com) and conducted a Sigmoidal variable slope nonlinear regression fitting.
Ki values for each compound were calculated from the observed IC50 from GraphPad analysis using the Cheng-Prusoff equation: Ki=IC50/(1+ (S)/KM). (S) here is 100μ M and KM is 32 μm.

[3] = tested on: HGS tumor model; assay: Anti-tumor activity in HGS tumor model; type: in vivo; details: animals treated with 20/kg of compound, day 42 after inoculation
Description: […]

| Compound | Ki [1] [nM] | Ki [2] [nM] | tumor size [3] [mm3] |
| --- | --- | --- | --- |
| COc1nccc2c(OCc3cc(F)cc(S(=N)(=O)C4CC4)c3)ccnc12 (racemic) [Example 66, cyclopropyl(3-fluoro-5-(((8-methoxy-1,7-naphthyridin-4-yl)oxy)methyl)-phenyl) (imino)-lambda6-sulfanone] |  | < 1 |  |
| C[S@](=N)(=O)CC1(O)CCN(c2ccnc3c(OCF)nccc23)CC1 (single isomer, unassigned) [Example 49] | < 10 | < 1 |  |
| COc1nccc2c(OCc3cc(F)cc([S@@](C)(=N)=O)c3)ccnc12 (single isomer, unassigned) [Example 71] | < 10 | < 1 |  |
| C[S@](=N)(=O)c1cccc(COc2ccnc3c(OCF)nccc23)c1 (single isomer, unassigned) [Example 79] | < 10 | < 1 |  |
| C=CC(=O)N1CCN(CCCn2c(=O)c(-c3c(Cl)c(OC)cc(OC)c3Cl)cc3cnc(NC)nc32)CC1 [8-(3-(4-acryloylpiperazin-1-yl)propyl)-6-(2,6-dichloro-3,5-dimethoxyphenyl)-2-(methylamino)pyrido (2,3-d)pyrimidin-7 (8H)-one] |  |  | 55 |
| COc1nccc2c(N3CCC(O)(CS(C)(=N)=O)CC3)ccnc12 (stereo not shown) [Example 25] |  | < 1 |  |
| CS(=N)(=O)c1cc(F)cc(COc2ccnc3c(OCF)nccc23)c1 (stereo not shown) [Example 72, (3-fluoro-5-(((8-(fluoromethoxy)-1,7-naphthyridin-4-yl)oxy)methyl)phenyl)-(imino)(methyl)-lambda6-sulfanone] |  | < 1 |  |
| COc1nccc2c(OCc3cccc([S@@](=N)(=O)C(C)(C)C)c3)ccnc12 [Example 74, (S)-tert-butyl(imino) (3-(((8-methoxy-1,7-naphthyridin-4-yl)oxy)methyl)phenyl)-lambda6-sulfanone] | < 10 |  |  |
| COc1nccc2c(OCc3cccc([S@@](=N)(=O)C(C)C)c3)ccnc12 [Example 84, (S)-imino(isopropyl)(3-(((8-methoxy-1,7-naphthyridin-4-yl)oxy)methyl)phenyl)-lambda6-sulfanone] | < 10 |  |  |

Further lines, with some results ahead:

| Ki [1] [nM] | Ki [2] [nM] | Compound | tumor size [3] [mm3] |
| --- | --- | --- | --- |
| < 10 | < 1 | N=S(=O)(c1cccc(COc2ccnc3c(OCF)nccc23)c1)C1CC1 (racemic) [Example 41, cyclopropyl(3-(((8-(fluoromethoxy)-1,7-naphthyridin-4-yl)oxy)methyl)phenyl)-(imino)-lambda6-sulfanone] |  |
|  | < 1 | CS(=N)(=O)CC1(O)CCN(c2ccnc3c(OCF)nccc23)CC1 (racemic) [Example 47, ((1-(8-(fluoromethoxy)-1,7-naphthyridin-4-yl)-4-hydroxypiperidin-4-yl)methyl) (imino)(methyl)-lambda6-sulfanone] |  |
| < 10 | < 1 | CS(=N)(=O)c1cccc(COc2ccnc3c(OCF)nccc23)c1 (racemic) [Example 77, (3-(((8-(fluoromethoxy)-1,7-naphthyridin-4-yl)oxy)methyl)phenyl) (imino)(methyl)-lambda6-sulfanone] |  |
| < 10 | < 1 | COc1nccc2c(N3CC4(CC(CS(C)(=N)=O)C4)C3)ncnc12 (single isomer, unassigned) [Example 2a, imino ((2-(8-methoxypyrido[3,4-d]pyrimidin-4-yl)-2-azaspiro[3.3]heptan-6-yl)methyl)(methyl)-lambda6-sulfanone] |  |
| < 10 | < 1 | N=[S@@](=O)(c1cccc(COc2ccnc3c(OCF)nccc23)c1)C1CC1 (single isomer, unassigned) [Example 43] |  |
| < 10 | < 1 | COc1nccc2c(OCc3cc(F)cc([S@@](=N)(=O)C4CC4)c3)ccnc12 (single isomer, unassigned) [Example 67] |  |
| < 10 | 1 to 5 | CS(=N)(=O)c1cccc(COc2ccnc3cnccc23)c1 (stereo not shown) [Example 9] |  |
| < 10 | < 1 | COc1nccc2c(OCc3cccc([S@@](=N)(=O)C4CC4)c3)ccnc12 [Example 17b, (S)-Cyclopropyl(imino)(3-(((8-methoxy-1,7-naphthyridin-4-yl)oxy)methyl)phenyl)-lamba6-sulfanone] |  |
| < 10 | < 1 | N=S(=O)(c1cc(F)cc(COc2ccnc3c(OCF)nccc23)c1)C1CC1 (stereo not shown) [Example 69, cyclopropyl(3-fluoro-5-(((8-(fluoromethoxy)-1,7-naphthyridin-4-yl)oxy)-methyl)phenyl) (imino)-lambda6-sulfanone] |  |
| < 10 |  | COc1nccc2c(OCc3cccc([S@@](C)(=N)=O)c3)ccnc12 [Example 75, (S)-imino (3-(((8-methoxy-1,7-naphthyridin-4-yl)oxy)methyl)phenyl)(methyl)-lambda6-sulfanone] |  |
| 10 to 100 |  | COc1nccc2c(OCc3cccc([S@](=N)(=O)C(C)(C)C)c3)ccnc12 [Example 76, (R)-tert-butyl(imino) (3-(((8-methoxy-1,7-naphthyridin-4-yl)oxy)methyl)phenyl)-lambda6-sulfanone] |  |
